From US3966951A, “Esters of quinoxaline-1,4-dioxides” (Pfizer Inc., priority 1975, dated 1976)
In brackets after ≈: the same amount, converted by molar mass.

Key:
Staph. aureus 01A005 = experiment: in vitro MIC, Inocula Replicating Device, anaerobic Gas Pac, BHI agar; type: cell-based; conditions: unit assumed
Strep. equi 021001 = experiment: as above; type: cell-based; conditions: unit assumed
Sal. typhim 58D011 = experiment: as above; type: cell-based; conditions: unit assumed
Sal. dublin 58U001 = experiment: as above; type: cell-based; conditions: unit assumed
Staph. aureus 01A106 = experiment: as above; type: cell-based; conditions: unit assumed
Sal. cholsu 58B242 = experiment: as above; type: cell-based; conditions: unit assumed
Aer. hydro 72B001 = experiment: as above; type: cell-based; conditions: unit assumed
Strep. pyogen 02C203 = experiment: as above; type: cell-based; conditions: unit assumed
E. Coli 51A-218 = experiment: as above; type: cell-based; conditions: unit assumed
E. Coli 51A-266 = experiment: as above; type: cell-based; conditions: unit assumed
Past. mult 59A004 = experiment: as above; type: cell-based; conditions: unit assumed
Strep. zoo 02-H001 = experiment: as above; type: cell-based; conditions: unit assumed
Past. mult 59A006 = experiment: as above; type: cell-based; conditions: unit assumed
E. Coli 51A266 = experiment: acute systemic infection in mice, PD50; type: in vivo; conditions: Escherichia coli, 0.5, 4 and 24 h after inoculation, ± is 95% confidence
Procedure: (§1) Acute systemic infections in mice have been used to evaluate the in vivo therapeutic activity of Compound 10. These infections are produced by the intraperitoneal injection of standard cultures suspended in hog gastric mucin. Treatment was initiated 0.5 hours after inoculation with the infecting organism and two subsequent doses administered at 4 and 24 hours after inoculation. Efficacy was measured in PD50 values, the dose of the drug in mg/kg required to protect 50% of the treated mice against otherwise lethal infections. These values were calculated based on the number of mice surviving a 4 day post-treatment holding period. The drugs were administered both orally (po) and subcutaneously (sc). The range quoted indicates the 95% confidence level for the PD50.

Sal. cholsu. 58B242 = experiment: acute systemic infection in mice, PD50; type: in vivo; conditions: Mus musculus, 0.5, 4 and 24 h after inoculation, ± is 95% confidence
Procedure: as §1

Past. multi. 59A006 = experiment: acute systemic infection in mice, PD50; type: in vivo; conditions: Mus musculus, 0.5, 4 and 24 h after inoculation, ± is 95% confidence
Procedure: as §1

salmonellosis = experiment: prophylaxis of induced salmonellosis; type: in vivo, swine; conditions: 50 ppm in feed
Excerpt: (§2) In the prophylaxis of two induced diseases, swine dysentery and salmonellosis, excellent results have been obtained. […] In the salmonellosis model, 20 percent of the nonmedicated animals died and 50 percent of the survivors were unthrifty.

swine dysentery = experiment: prophylaxis of induced swine dysentery; type: in vivo; conditions: 25 ppm or 50 ppm in feed
Excerpt: as §2

tolerance in chicks = type: in vivo; conditions: 250 ppm
feed efficiency of swine = type: in vivo; conditions: 50 ppm in feed
Treponema hyodysenteriae = experiment: MIC against Treponema hyodysenteriae on bovine blood/tryptose agar; type: cell-based; conditions: about 5% bovine blood, about 3% tryptose agar, unit assumed
Procedure: MIC's against Treponema hyodysenteriae were determined by spreading appropriate dilutions of the microorganism on a growth medium containing about 5% bovine blood and about 3% tryptose agar.

[1] = tolerance and pathological examination in swine; type: in vivo

Row | Structure (SMILES) | Primary in vitro Activity (MIC) (Staph. aureus 01A005) | Primary in vitro Activity (MIC) (Strep. equi 021001) | Primary in vitro Activity (MIC) (Sal. typhim 58D011) | Primary in vitro Activity (MIC) (Sal. dublin 58U001) | Primary in vitro Activity (MIC) (Staph. aureus 01A106) | Primary in vitro Activity (MIC) (Sal. cholsu 58B242) | Primary in vitro Activity (MIC) (Aer. hydro 72B001) | Primary in vitro Activity (MIC) (Strep. pyogen 02C203) | Primary in vitro Activity (MIC) (E. Coli 51A-218) | Primary in vitro Activity (MIC) (E. Coli 51A-266) | Primary in vitro Activity (MIC) (Past. mult 59A004) | Primary in vitro Activity (MIC) (Strep. zoo 02-H001) | Primary in vitro Activity (MIC) (Past. mult 59A006) | also measured
1 | CC(=O)c1c(COC(=O)c2ccc(O)cc2)[n+]([O-])c2ccccc2[n+]1[O-] [Compound 1] | 1.56 µg/mL | < 1.56 µg/mL | 50 µg/mL | 50 µg/mL | 1.56 µg/mL | 50 µg/mL | 6.25 µg/mL | 3.12 µg/mL | 50 µg/mL | 50 µg/mL | 12.5 µg/mL | < 1.56 µg/mL | 25 µg/mL | –
2 | CC(=O)c1c(COC(=O)c2cccc(O)c2)[n+]([O-])c2ccccc2[n+]1[O-] [Compound 2] | 12.5 µg/mL | < 1.56 µg/mL | < 100 µg/mL | < 100 µg/mL | 6.25 µg/mL | < 100 µg/mL | 3.2 µg/mL | 25 µg/mL | 50 µg/mL | < 100 µg/mL | 12.5 µg/mL | < 100 µg/mL | 25 µg/mL | –
3 | CC(=O)c1c(COC(=O)Cc2ccc(O)cc2)[n+]([O-])c2ccccc2[n+]1[O-] [Compound 3] | 0.78 µg/mL | < 1.56 µg/mL | 50 µg/mL | 50 µg/mL | 1.56 µg/mL | 50 µg/mL | < 1.56 µg/mL | 6.25 µg/mL | 12.5 µg/mL | 12.5 µg/mL | 12.5 µg/mL | < 1.56 µg/mL | 6.25 µg/mL | –
4 | O=C(OCc1c(CO)[n+]([O-])c2ccccc2[n+]1[O-])c1ccc(O)cc1 [Compound 4] | 3.2 µg/mL | < 1.56 µg/mL | 25 µg/mL | 25 µg/mL | 3.2 µg/mL | 50 µg/mL | 12.5 µg/mL | < 1.56 µg/mL | 50 µg/mL | 25 µg/mL | 100 µg/mL | 100 µg/mL | 12.5 µg/mL | –
5 | O=C(CCc1ccc(O)cc1)OCc1c(CO)[n+]([O-])c2ccccc2[n+]1[O-] [Compound 5] | 25 µg/mL | 12.5 µg/mL | 100 µg/mL | 100 µg/mL | 25 µg/mL | 100 µg/mL | 12.5 µg/mL | 50 µg/mL | 100 µg/mL | 100 µg/mL | 50 µg/mL | 100 µg/mL | 50 µg/mL | –
6 | O=C(Cc1ccc(O)cc1)OCc1c(CO)[n+]([O-])c2ccccc2[n+]1[O-] [Compound 6] | 1.56 µg/mL | < 1.56 µg/mL | 25 µg/mL | 25 µg/mL | 1.56 µg/mL | 25 µg/mL | 1.56 µg/mL | < 1.56 µg/mL | 12.5 µg/mL | 12.5 µg/mL | 12.5 µg/mL | 12.5 µg/mL | 25 µg/mL | –
7 | O=C(C=Cc1ccc(O)cc1)OCc1c(CO)[n+]([O-])c2ccccc2[n+]1[O-] [Compound 7] | 6.25 µg/mL | 0.78 µg/mL | 12.5 µg/mL | 25 µg/mL | 6.25 µg/mL | 25 µg/mL | 1.56 µg/mL | 12.5 µg/mL | 12.5 µg/mL | 12.5 µg/mL | 12.5 µg/mL | 50 µg/mL | 25 µg/mL | –
8 | O=C(CCc1ccc(O)cc1)OCc1c[n+]([O-])c2ccccc2[n+]1[O-] [Compound 8] | 12.5 µg/mL | 6.25 µg/mL | 200 µg/mL | 100 µg/mL | 12.5 µg/mL | 50 µg/mL | 6.25 µg/mL | 6.25 µg/mL | 50 µg/mL | 100 µg/mL | < 100 µg/mL | 6.25 µg/mL | 50 µg/mL | –
9 | O=C(Cc1ccc(O)cc1)OCc1c[n+]([O-])c2ccccc2[n+]1[O-] [Compound 9] | 6.25 µg/mL | 6.25 µg/mL | 25 µg/mL | 50 µg/mL | 12.5 µg/mL | 12.5 µg/mL | 3.12 µg/mL | 3.12 µg/mL | 25 µg/mL | 50 µg/mL | 50 µg/mL | 6.25 µg/mL | 12.5 µg/mL | –
10 | CC(=O)c1c(COC(=O)CCc2ccc(O)cc2)[n+]([O-])c2ccccc2[n+]1[O-] [Compound 10, 2-acetyl-3-Hydroxymethyl-Quinoxaline-1,4-Dioxide-p-Hydroxyphenylpropionic Acid Ester] | < 0.39 µg/mL | < 0.39 µg/mL | 12.5 µg/mL | 50 µg/mL | < 0.39 µg/mL | 50 µg/mL | 1.56 µg/mL | < 0.39 µg/mL | 6.25 µg/mL | 25 µg/mL | 25 µg/mL | < 0.39 µg/mL | 12.5 µg/mL | ED50 (E. Coli 51A266; po): 7.6 ± 4.7 mg/kg; ED50 (E. Coli 51A266; sc): 13.3 ± 8.6 mg/kg; ED50 (Sal. cholsu. 58B242; po): 8.4 ± 3.2 mg/kg; ED50 (Sal. cholsu. 58B242; sc): 6.9 ± 3.1 mg/kg; ED50 (Past. multi. 59A006; po): 13 ± 1.6 mg/kg; ED50 (Past. multi. 59A006; sc): 13 ± 1.6 mg/kg; mortality in salmonellosis model (salmonellosis; nonmedicated: 20 percent died): none of the animals on a feed containing 50 ppm of Compound 10 died; animals judged unthrifty in salmonellosis model (salmonellosis; nonmedicated: 50 percent of survivors): 30%; morbidity in dysentery model (swine dysentery; nonmedicated: 100 percent): no deaths or morbidity; mortality in dysentery model (swine dysentery; nonmedicated: average 36 percent): no deaths; tolerance in chicks (tolerance in chicks): extremely well tolerated; increase in feed efficiency of swine (feed efficiency of swine): 3%; MIC (Treponema hyodysenteriae): 0.19 µg/mL (≈ 0.497 µM); tolerance in swine ([1]; 150 ppm): The same results are observed in swine; adverse effects on pathological examination ([1]; swine, 50 ppm in feed): no adverse effects
